Reference: US20240400546A1, “COMPOUNDS AND USES THEREOF” (JANSSEN PHARMACEUTICA NV, priority 2016, published 2024)
pIC50: −log10 of the molar value.

target: T1, SCD1 (Homo sapiens, UniProt O00767); experiment: Growth inhibition of humanized yeast expressing SCD1 as sole desaturase; format: cell-based; settings: humanized yeast expressing SCD1
T1 construct: host or cells: S. cerevisiae ole1Δ strain, plasmid pRS316 with TDH3 promoter and CYC1 terminator
T1 sequence (O00767 1-359): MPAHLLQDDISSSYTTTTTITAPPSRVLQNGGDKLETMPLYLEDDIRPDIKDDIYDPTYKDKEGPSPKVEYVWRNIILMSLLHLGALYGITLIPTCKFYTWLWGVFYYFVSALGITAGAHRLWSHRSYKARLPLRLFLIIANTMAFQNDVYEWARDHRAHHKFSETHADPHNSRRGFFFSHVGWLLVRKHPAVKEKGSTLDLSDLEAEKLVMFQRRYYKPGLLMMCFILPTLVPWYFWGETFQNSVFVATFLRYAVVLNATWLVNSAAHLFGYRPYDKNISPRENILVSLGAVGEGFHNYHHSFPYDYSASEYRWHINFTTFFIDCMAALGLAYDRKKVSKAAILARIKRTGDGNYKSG
Experimental: Strain ole1Δ (yeast ole1 deletion mutant) was constructed by deleting OLE1 with NAT-MX6 in BY4741, amplifying the deletion cassette from the genomic DNA of the resulting strain with primers flanking the ORF by 1000 bp upstream and downstream, transforming the resulting deletion cassette into W303 pdr1Δ pdr3Δ, and plating transformants on YPD media containing G418 (200 μg/mL) and nourseothricin (100 μg/mL) with 0.01% TWEEN®-20 and 0.5 mM oleic and palmitoleic acids.
The coding sequence of yeast OLE1 was also cloned into this plasmid). These clones were then transformed into the ole1Δ strain and plated on CSM-Ura media (CSM lacking uracil) with 2% glucose (w/v) and independent colonies were isolated and amplified.
All compound profiling experiments were performed using the same basic protocol. Different genetic backgrounds (e.g., gene deletions) or conditions (e.g., addition of oleic and palmitoleic acid) were replaced as indicated below.
Yeast were cultured using standard techniques in complete synthetic media (CSM) and yeast nitrogen base supplemented with 2% (w/v) carbon source (glucose, raffinose, or galactose) to regulate the expression of the toxic disease protein. An initial starter culture was inoculated in 3 mL CSM-Glucose media and incubated overnight in a 30° C. shaker incubator (225 rpm). Saturated morning cultures were then diluted 1:20 in fresh CSM-Raffinose media and grown for 6 h to an OD600 (optical density) of ˜0.4-0.8 at 30° C. with shaking.
Compound administration was performed in two separate steps. First, 15 μL of CSM-Galactose (induces expression of toxic protein) was dispensed into clear 384 well assay plates using a MULTIDROP™ Combi reagent dispenser. […] The cultures described above were then diluted to a 2× concentration (0.03 and 0.08 for alpha-synuclein and ApoE, final OD600 of 0.015 and 0.04) in CSM-Galactose. For wild-type and Ole1/SCD1/SCD5 plasmid-containing strains, the 2× cell density was 0.02. […] For 96-well assays (FIGS. 1A and 1B), compound dilutions in DMSO were generated in 96 well plates and 1 μL was manually pipetted into 96 well clear bottom assay plates.
For experiments using a plasmid-borne copy of Ole1, SCD1, or SCD5 (FIGS. 3B, 6, and 7), media lacking uracil (SX-Ura, where X is glucose, raffinose, or galactose), was used for all steps of the compound profiling protocol to ensure its maintenance throughout the assay.
After yeast delivery, assay plates were incubated under humidified conditions at 30° C. for 24 to 40 h. ApoE4 rescue experiments were stopped at 24 h, aSyn experiments at 40 h, Ole1 at 24 h, and SCD1/SCD5 at 40 h. The growth of yeast was monitored by reading the OD600 of each well using a microplate reader (Perkin Elmer EnVision™).

SMILES	pIC50
COc1ccc(-c2noc(CCNC(=O)CNC(=O)c3ccccc3)n2)cc1OC [Compound 484]	< 4.35
O=C(CNC(=O)c1ccccc1)NCCc1nc(-c2ccccc2)no1 [Compound 485]	< 4.35
COc1ccc(-c2noc(CCNC(=O)COc3cc(O)c4c(c3)OC(C)(C)CC4=O)n2)cc1OC [Compound 486]	< 4.35
CC1(C)CC(=O)c2c(O)cc(OCC(=O)NCCc3nc(-c4ccccc4)no3)cc2O1 [Compound 487]	< 4.35
COc1ccc(-c2noc(C3CCNCC3)n2)cc1OC [Compound 488]	< 4.35
COc1cccc(-c2noc(C3CC(=O)N(c4ccc(C)c(C)c4)C3)n2)c1 (centres unmarked) [Compound 489]	4.39
CCN1C(=O)COc2ccc(-c3noc(C4(c5ccc(OC)cc5)CC4)n3)cc21 [Compound 491]	< 4.35
CCN(Cc1nc(-c2ccc(OC)c(OC)c2)no1)C(=O)Cc1ccccc1 [Compound 492]	< 4.35
CCNCc1nc(-c2ccc3c(c2)N(CC)C(=O)CO3)no1 [Compound 493]	< 4.35
CCN(Cc1nc(-c2ccc3c(c2)N(CC)C(=O)CO3)no1)C(=O)Cc1cccc2ccccc12 [Compound 494]	< 4.35

same assay, conditions: humanized yeast expressing human SCD1

SMILES	pIC50
Cc1nn(C)c2cc(-c3noc(C4CCN(C(=O)c5ccccc5Cl)CC4)n3)ccc12 [Compound 288]	< 4.35
Cc1c2ccc(-c3noc(C4CCN(C(=O)CNC(=O)c5ccccc5)CC4)n3)cc2nn1C(C)C [Compound 289]	< 4.35
Cc1nn(C)c2cc(-c3noc(C4CCN(C(=O)c5ccc(C(C)C)cc5)CC4)n3)ccc12 [Compound 290]	< 4.35
Cc1nn(C)c2cc(-c3noc(C4CCN(C(=O)c5ccc(Cl)cc5)CC4)n3)ccc12 [Compound 291]	< 4.35
Cc1nn(C)c2cc(-c3noc(C4CCN(C(=O)c5cc(F)ccc5C(F)(F)F)CC4)n3)ccc12 [Compound 292]	< 4.35
Cc1nn(C)c2cc(-c3noc(N4CCN(C(=O)c5ccccc5C(F)(F)F)CC4)n3)ccc12 [Compound 295]	< 4.35
Cc1nn(C)c2ccc(-c3noc(C4CCN(C(=O)c5ccc(C(C)C)cc5)CC4)n3)cc12 [Compound 297]	< 4.35
CCn1nc(C)c2ccc(-c3noc(C4CCN(C(=O)OC(C)(C)C)CC4)n3)cc21 [Compound 301]	< 4.35
Cc1nn(C)c2cc(-c3noc(C4CCN(C(=O)CNC(=O)c5cc(F)ccc5C(F)(F)F)CC4)n3)ccc12 [Compound 304]	< 4.35
CCc1nn(C)c2cc(-c3noc(C4CCN(C(=O)CNC(=O)c5ccccc5)CC4)n3)ccc12 [Compound 309]	< 4.35
CCN1C(=O)CN(C)c2cc(-c3noc(C4CCN(C(=O)CNC(=O)c5ccccc5)CC4)n3)ccc21 [Compound 310]	< 4.35
Cc1nn(C)c2cc(-c3noc(C4CCN(C(=O)N5CCOCC5)CC4)n3)ccc12 [Compound 311]	< 4.35
Cc1nn(C)c2cc(-c3noc(C4CCN(C(=O)CNC(=O)c5ccc(C(F)(F)F)cc5)CC4)n3)ccc12 [Compound 317]	< 4.35
CCn1nc2cc(-c3noc(C4CCN(C(=O)CNC(=O)c5ccccc5)CC4)n3)ccc2c1C [Compound 320]	< 4.35
CCc1c2ccc(-c3noc(C4CCN(C(=O)CNC(=O)c5ccccc5)CC4)n3)cc2nn1C [Compound 321]	< 4.35
Cc1nn(C)c2cc(-c3nc(C4CCN(C(=O)CNC(=O)c5ccccc5)CC4)no3)ccc12 [Compound 326]	< 4.35
Cc1nn(C)c2cc(-c3noc(N4CCN(C(=O)N5CCCCC5)CC4)n3)ccc12 [Compound 327]	< 4.35
Cc1nn(C)c2cc(-c3noc(C4CCN(C(=O)CNC(=O)c5cc(Cl)ccc5C(F)(F)F)CC4)n3)ccc12 [Compound 328]	< 4.35
Cc1nn(C)c2cc(-c3noc(C4CCN(C(=O)N[C@@H]5C[C@@H]5c5ccccc5)CC4)n3)ccc12 [Compound 329]	< 4.35
O=C(c1ccccc1)N1CCC(c2nc(N3CC4(COC4)C3)no2)CC1 [Compound 334]	< 4.35
O=C(c1ccccc1)N1CCC(c2nc(N3CC4(CCCO4)C3)no2)CC1 [Compound 335]	< 4.35
CC(C)c1ccc(C(=O)N2CCC(c3nc(N4CC5(CCCO5)C4)no3)CC2)cc1 [Compound 336]	< 4.35
CC(C)c1ccc(C(=O)N2CCC(c3nc(N4CC5(COC5)C4)no3)CC2)cc1 [Compound 337]	< 4.35

SMILES	pIC50
Cc1nn(C(C)C)c2cc(-c3noc(C4CCN(C(=O)OC(C)(C)C)CC4)n3)ccc12 [Compound 343]	< 4.35
COC(=O)N1CCC(c2nc(-c3ccc4cnn(C(C)C)c4c3)no2)CC1 [Compound 355]	< 4.35
COC(=O)N1CCN(c2nc(-c3ccc4cnn(C(C)C)c4c3)no2)CC1 [Compound 356]	< 4.35
CC(C)OC(=O)N1CCC(c2nc(-c3ccc4cnn(C(C)C)c4c3)no2)CC1 [Compound 357]	< 4.35
CC(C)n1ncc2ccc(-c3noc(C4CCN(C(=O)COc5ccccc5)CC4)n3)cc21 [Compound 358]	< 4.35
Cn1ncc2ccc(-c3noc(C4CCN(C(=O)OC(C)(C)C)CC4)n3)cc21 [Compound 359]	< 4.35
CC(C)(C)OC(=O)N1CCC(c2nc(-c3ccc4cnn(C5CC5)c4c3)no2)CC1 [Compound 360]	< 4.35
CCOC(=O)N1CCC(c2nc(-c3ccc4cnn(C(C)C)c4c3)no2)CC1 [Compound 361]	< 4.35
CC(C)n1ncc2ccc(-c3noc(N4CCN(C(=O)c5ccccc5)CC4)n3)cc21 [Compound 362]	< 4.35
CC(C)n1ncc2ccc(-c3noc(C4CCN(C(=O)c5ccc(Cl)cc5)CC4)n3)cc21 [Compound 363]	< 4.35
CC(C)n1ncc2ccc(-c3noc(N4CCN(C(=O)c5ccccc5Cl)CC4)n3)cc21 [Compound 364]	< 4.35
Cc1nn(C)c2cc(-c3noc(C4CN(C(=O)OC(C)(C)C)C4)n3)ccc12 [Compound 365]	< 4.35
CC(C)n1ncc2ccc(-c3noc(N4CCN(C(=O)CC5(C)CC5)CC4)n3)cc21 [Compound 495]	< 4.35
CC(C)n1ncc2ccc(-c3noc(N4C[C@H]5CN(C(=O)CC(C)(C)C)C[C@H]5C4)n3)cc21 [Compound 497]	< 4.35
CC(C)n1ncc2ccc(-c3noc([C@@H]4[C@@H]5CN(C(=O)OC(C)(C)C)C[C@@H]54)n3)cc21 [Compound 498]	< 4.35
CC(C)n1ncc2ccc(-c3nc(C4CCN(C(=O)c5ccccn5)CC4)no3)cc21 [Compound 499]	< 4.35
Cc1nn(C)c2cc(-c3noc(C4CCN(C(=O)CC5CN(C(=O)OC(C)(C)C)C5)CC4)n3)ccc12 [Compound 502]	< 4.35
Cc1nn(C)c2cc(-c3nsc(C4CCN(C(=O)OC(C)(C)C)CC4)n3)ccc12 [Compound 503]	< 4.35
CC(C)n1ncc2ccc(-c3nc(C4CCN(C(=O)c5ccc(Cl)cc5)CC4)no3)cc21 [Compound 505]	< 4.35
CC(C)n1ncc2ccc(-c3nc(C4CCN(C(=O)c5cccc(F)c5)CC4)no3)cc21 [Compound 506]	< 4.35
CC(C)OC(=O)N1CCC(c2nc(-c3ccc4oc(=O)n(C(C)C)c4c3)no2)CC1 [Compound 507]	< 4.35
CC(C)n1ncc2ccc(-c3noc(C4=C(F)CN(C(=O)OC(C)(C)C)CC4)n3)cc21 [Compound 510]	< 4.35
CC(C)n1ncc2ccc(-c3noc(C4CCN(C(=O)[C@@H]5CC(=O)N(c6cccc(C#N)c6)C5)CC4)n3)cc21 [Compound 528]	< 4.35
